This is an account of results in PubChem BioAssay (NCI).

Test in all cases: NCI-60 cell line screen, 48 h
Experiment [1] relates to 786-0 renal.
The test system of experiment [2] is ACHN renal.
In experiment [3] the test system is HCT-116 colon.
Experiment [4] has as its system NCI-H460 lung.
The subject of experiment [5] is RXF 393 renal.
Experiment [6] deals with SF-539 CNS.
Experiment [7] deals with SK-MEL-28 melanoma.
Experiment [8] deals with SW-620 colon.
Experiment [9] has as its system UO-31 renal.

Where “and” joins values, the source holds several entries; their conditions need not be identical. Equal values may be shown once.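 Protocol summary: plate cells (96-well), add compound at 5 concentrations, incubate 48 h, interpolate endpoints linearly. TGI denotes the concentration required for complete inhibition of growth.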

For `CSC(=N/N=C(\C)c1ccc(S(=O)(=O)N(C)c2ccccc2)cc1)SC`, the TGI in experiment [1], in experiment [2], in [3], in experiment [4], in experiment [5] and in experiment [6] was over 100 µM in each case. The TGI in [7], in experiment [8] and in [9] was over 100 µM each time.
As for `Cc1cc(=O)oc2c(CN(CCCl)CCCl)c(O)ccc12`, the TGI in experiment [1], in [2], in [3], in experiment [4], in experiment [5] and in experiment [6] was over 100 µM throughout. Further, the TGI in [7], in experiment [8] and in experiment [9] was over 100 µM throughout.
On to `COc1cc2c3c4[n+](cc2c(OC)c1OC)CCC4CCC3` (stereo not given), for which the TGI in experiment [1], in experiment [2], in experiment [3], in experiment [4], in [5] and in experiment [6] was over 100 µM in each case. The TGI in experiment [7], in [8] and in experiment [9] was over 100 µM in each case.
For `Cc1nc2cccc(F)c2c(=O)n1-c1nnc(C2CC2)s1`, the TGI in experiment [1], in experiment [2], in experiment [3], in [4], in experiment [5] and in [6] was over 10 µM in each case. The TGI in experiment [7], in experiment [8] and in experiment [9] was over 10 µM in each case.
Take `Cc1cnc2[nH]c(-c3sccc3C)cc(=O)c2c1`: the TGI in experiment [1] is over 100 µM; in [2], over 100 µM; in experiment [3], over 100 µM; in experiment [4] it was over 100 µM; in experiment [5], over 28.4 µM; in experiment [6], over 91.6 µM. The TGI in [7], in [8] and in experiment [9] was over 100 µM each time.
`N#Cc1nc(-c2ccccn2)c(-c2ccccn2)nc1C#N`: the TGI was 6.28 µM in experiment [1]; 7.95 µM in experiment [2]; 3.27 µM in [3]; over 35.1 µM in [4]; 15.9 µM in experiment [5]; 21.5 µM in experiment [6]. Also, the TGI in experiment [7] was 45.6 µM; in [8], over 43.5 µM; in experiment [9], 5.64 µM.
`CCOC(=O)C1=C(C)N(c2ccc(Cl)cc2)C2(O)C=CC(=O)C3C(=O)N(c4ccccc4)C(=O)C132` (stereo not given): the TGI in experiment [1] stood at 3.09 µM; in [2], 3.07 µM; in experiment [3] it was 3.14 µM; in experiment [4], 4.97 µM; in experiment [5], 3.31 µM; in experiment [6] it was 9.4 µM. For the same compound, the values for the TGI in [7], in experiment [8] and in [9] were 3.06 µM, 3.68 µM and 3.31 µM, respectively.
For `CCOC(=O)c1sc2[n+](c1C)C(=O)/C(=C/c1ccccc1Cl)S2`, the TGI is 26.1 µM in experiment [1]; 40 µM in experiment [2]; over 48 µM in [3]; 6.44 µM in experiment [4]; over 68.1 µM in experiment [5]; 15.2 µM in [6]. Moreover, the TGI turned out to be 47.3 µM in [7], 46.5 µM in experiment [8] and 25 µM in experiment [9].
In the case of `CC(=O)N1C(=O)/C(=C\C(=O)c2ccc(Cl)cc2)c2ccccc21`, the TGI in experiment [1] amounted to 15.9 µM; in [2] it was 23.6 µM; in experiment [3], 32.3 µM; in [4], 32.5 µM; in [5], 32.6 µM; in experiment [6], 37.2 µM. Besides, the TGI came to 35.8 µM in experiment [7], 61.1 µM in experiment [8] and 29.6 µM in experiment [9].
Regarding `O=C1/C(=C/Cc2ccco2)N=C(c2ccccc2)N1c1nc2c(Cl)cc(Cl)cc2s1`, the TGI was over 100 µM in experiment [1]; 74.6 µM in experiment [2]; 81.2 µM in [3]; over 100 µM in experiment [4]; 40.6 µM in experiment [5]; 61.3 µM in experiment [6]. The TGI in experiment [7] is over 100 µM; in experiment [8] it was over 100 µM; in experiment [9] it was 72.8 µM.
As to `c1ccc2c(c1)[C@@H]1O[C@@H]1[C@@]13O[C@@]21[C@H]1O[C@H]1c1ccccc13`, the TGI in experiment [1] is 30.1 µM; in [2], 28.9 µM; in experiment [3] it was 25.2 µM; in [4] it was 74.9 µM; in [5], 25.7 µM; in experiment [6] it was 34.9 µM. Also, the TGI in experiment [7] worked out at 41.2 µM; in experiment [8] it was 39.5 µM; in experiment [9] it was 51.1 µM.
With `CC(=O)OC1COC(n2c(N)c(C#N)c(-c3ccccc3)c(C#N)c2=S)C(OC(C)=O)C1OC(C)=O` (stereo not given), the TGI in [1] is over 100 µM; in [2], over 100 µM; in [3], over 100 µM; in experiment [4] it was over 100 µM; in experiment [5], 83.1 µM and > 100 µM; in experiment [6], over 100 µM. The TGI in [7] was over 100 µM; in [8], over 100 µM; in experiment [9], > 100 µM and 67.8 µM.
For the compound `O=C(N(C1=CCCC1)N(c1ccccc1)c1ccccc1)C(F)(F)F`, the TGI in experiment [1] was 96.5 µM; in experiment [2], 38.8 µM; in [3], 63.5 µM; in experiment [4] it was 35.7 µM; in [5] it was 38.8 µM; in experiment [6] it was 45.9 µM. Besides, the TGI in experiment [7] was over 100 µM; in experiment [8], 66.8 µM; in experiment [9] it was 75.6 µM.
In the case of `COc1ccc2c(-c3csc(-c4c[nH]c5ccccc45)n3)c[nH]c2c1`, the TGI amounted to 18.2 µM in experiment [1]; 16.9 µM in experiment [2]; 19 µM in experiment [3]; 13.7 µM in [4]; 17.9 µM in [5]; 65.5 µM in experiment [6]. Further, the TGI was over 81.6 µM in experiment [7], over 100 µM in [8] and 30.6 µM in experiment [9].
With `CC(=O)c1nc(C#N)c(N)o1`, the TGI in experiment [1], in experiment [2], in experiment [3], in experiment [4], in [5] and in experiment [6] was over 100 µM in each case. Further, the TGI in experiment [7], in [8] and in experiment [9] was over 100 µM in each case.
